The source of these data is patent US7195893B2, “Nucleic acids encoding α2δ calcium channel subunits and methods for making and using them” (Neuromed Pharmaceuticals Ltd., priority 2003, dated 2007).

Structures can show the parent of a compound that is named as a salt.

The target of experiment [1] is α2δ-2 (Homo sapiens, UniProt Q9NY47). Particulars: Marais et al. 2001; cited from earlier work.
Experiment [2] concerns the target T1, rat α1B+β1b+chicken α2δ Ca2+ channel (Rattus norvegicus, UniProt Q02294).
T1 construct: expressed in transfected cells; host or cells: HEK 293
Briefly: whole-cell patch clamp screening for calcium channel blockers. The experiment is classed as cell-based. As to conditions: 600 nM, HEK cells, n=3, FIG. 4. Here is the method: After an incubation period of 24 to 72 hrs, the culture medium was removed and replaced with an external recording solution containing (in mM) 5 BaCl, 129 CsCl, 1 MgCl2, 10 HEPES, 10 glucose, pH 7.4 with CsOH. Whole-cell patch clamp recordings were made with an Axopatch 200B amplifier (Axon Instruments, USA). Recording electrodes with typical resistances of 4–8 MΩ were backfilled with (in mM) 108 caesium-methansulfonate, 2 MgCl2, 10 HEPES, 11 EGTA, 2 ATP, pH 7.2 with CsOH. To create command potentials and acquire data, Clampex 8.2 software (Axon Instruments, USA) and a Digidata 1322A A/D converter interface (Axon Instrument, USA) were used. Currents were elicited at test potential of +20 mV (50 ms duration) from a holding potential of −80 mV. Leak and capacitance currents were subtracted on-line with a standard P/4 protocol. Evoked currents were filtered by a low-pass Bessel filter set at 1 kHz. Signals were acquired at 2.02 kHz and analyzed offline using pClamp 8.2 (Axon Instruments, USA) and Origin (OriginLab Corporation, USA) software. The effects of co-expressing the α2δ subunit of Example 1 with the rat α1B+β1b calcium channel subunits were tested by comparing average current density (Ipeak/cell capacitance) with and without α2δ.
To screen for calcium channel blockers, the whole-cell patch clamp recording technique used was as described in Example 2. […]

The subject of experiment [3] is rat α1B+β1b Ca2+ channel. Briefly: whole-cell patch clamp, average current density with and without α2δ in transfected HEK 293 cells. The experiment is classed as cell-based. As to conditions: HEK 293, 6 cells, test potential +20 mV, holding −80 mV, mean±S.E.M. Here is the method: Human embryonic kidney cells, HEK 293 (ATCC# CRL 1573) were grown in standard DMEM medium supplemented with 2 mM glutamine and 10% fetal bovine serum and transfected by a standard calcium-phosphate-DNA co-precipitation method or by lipofection with the full-length chicken α2δ-1 calcium channel cDNA in the mammalian expression vector pBK-RSV (see Current protocols in Molecular Biology): alone or in combination with expression vectors encoding α1 and β subunits, and with vectors expressing green fluorescent protein (GFP).
After an incubation period of 24 to 72 hrs, the culture medium was removed and replaced with an external recording solution containing (in mM) 5 BaCl, 129 CsCl, 1 MgCl2, 10 HEPES, 10 glucose, pH 7.4 with CsOH. Whole-cell patch clamp recordings were made with an Axopatch 200B amplifier (Axon Instruments, USA). Recording electrodes with typical resistances of 4–8 MΩ were backfilled with (in mM) 108 caesium-methansulfonate, 2 MgCl2, 10 HEPES, 11 EGTA, 2 ATP, pH 7.2 with CsOH. To create command potentials and acquire data, Clampex 8.2 software (Axon Instruments, USA) and a Digidata 1322A A/D converter interface (Axon Instrument, USA) were used. […] Signals were acquired at 2.02 kHz and analyzed offline using pClamp 8.2 (Axon Instruments, USA) and Origin (OriginLab Corporation, USA) software. […]
(In general: The patch-clamp technique gives a direct electrical read-out from membranes.)

α2δ-2, sequence (Q9NY47 19-1150): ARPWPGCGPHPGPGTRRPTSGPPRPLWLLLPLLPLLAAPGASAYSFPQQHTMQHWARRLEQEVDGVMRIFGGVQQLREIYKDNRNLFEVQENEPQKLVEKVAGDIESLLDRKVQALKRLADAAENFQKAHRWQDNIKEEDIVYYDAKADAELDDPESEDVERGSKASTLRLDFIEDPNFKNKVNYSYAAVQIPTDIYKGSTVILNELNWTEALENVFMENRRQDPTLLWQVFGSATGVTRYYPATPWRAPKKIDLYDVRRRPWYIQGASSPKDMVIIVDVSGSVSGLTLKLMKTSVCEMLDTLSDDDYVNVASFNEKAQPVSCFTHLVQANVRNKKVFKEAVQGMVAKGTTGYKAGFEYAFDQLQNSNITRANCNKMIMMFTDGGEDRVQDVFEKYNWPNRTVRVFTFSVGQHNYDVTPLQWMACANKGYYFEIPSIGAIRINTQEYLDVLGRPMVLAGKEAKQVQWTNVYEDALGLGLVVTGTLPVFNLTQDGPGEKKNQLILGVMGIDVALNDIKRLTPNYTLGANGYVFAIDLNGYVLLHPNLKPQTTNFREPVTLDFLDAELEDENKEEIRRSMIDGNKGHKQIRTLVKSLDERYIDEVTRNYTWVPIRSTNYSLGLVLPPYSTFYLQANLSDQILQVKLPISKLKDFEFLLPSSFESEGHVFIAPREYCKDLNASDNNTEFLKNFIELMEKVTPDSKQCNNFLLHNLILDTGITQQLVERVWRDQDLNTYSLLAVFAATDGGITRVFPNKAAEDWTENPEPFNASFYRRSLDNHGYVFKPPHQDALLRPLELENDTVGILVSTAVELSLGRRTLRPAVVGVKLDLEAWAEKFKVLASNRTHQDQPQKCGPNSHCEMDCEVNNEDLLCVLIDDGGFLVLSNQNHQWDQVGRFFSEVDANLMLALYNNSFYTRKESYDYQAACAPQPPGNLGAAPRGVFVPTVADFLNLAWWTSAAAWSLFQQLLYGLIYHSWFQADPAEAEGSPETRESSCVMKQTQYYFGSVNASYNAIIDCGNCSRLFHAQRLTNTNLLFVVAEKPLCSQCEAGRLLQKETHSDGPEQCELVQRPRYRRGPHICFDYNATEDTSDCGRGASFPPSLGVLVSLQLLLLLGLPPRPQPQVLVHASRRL
T1 sequence (Q02294 whole entry): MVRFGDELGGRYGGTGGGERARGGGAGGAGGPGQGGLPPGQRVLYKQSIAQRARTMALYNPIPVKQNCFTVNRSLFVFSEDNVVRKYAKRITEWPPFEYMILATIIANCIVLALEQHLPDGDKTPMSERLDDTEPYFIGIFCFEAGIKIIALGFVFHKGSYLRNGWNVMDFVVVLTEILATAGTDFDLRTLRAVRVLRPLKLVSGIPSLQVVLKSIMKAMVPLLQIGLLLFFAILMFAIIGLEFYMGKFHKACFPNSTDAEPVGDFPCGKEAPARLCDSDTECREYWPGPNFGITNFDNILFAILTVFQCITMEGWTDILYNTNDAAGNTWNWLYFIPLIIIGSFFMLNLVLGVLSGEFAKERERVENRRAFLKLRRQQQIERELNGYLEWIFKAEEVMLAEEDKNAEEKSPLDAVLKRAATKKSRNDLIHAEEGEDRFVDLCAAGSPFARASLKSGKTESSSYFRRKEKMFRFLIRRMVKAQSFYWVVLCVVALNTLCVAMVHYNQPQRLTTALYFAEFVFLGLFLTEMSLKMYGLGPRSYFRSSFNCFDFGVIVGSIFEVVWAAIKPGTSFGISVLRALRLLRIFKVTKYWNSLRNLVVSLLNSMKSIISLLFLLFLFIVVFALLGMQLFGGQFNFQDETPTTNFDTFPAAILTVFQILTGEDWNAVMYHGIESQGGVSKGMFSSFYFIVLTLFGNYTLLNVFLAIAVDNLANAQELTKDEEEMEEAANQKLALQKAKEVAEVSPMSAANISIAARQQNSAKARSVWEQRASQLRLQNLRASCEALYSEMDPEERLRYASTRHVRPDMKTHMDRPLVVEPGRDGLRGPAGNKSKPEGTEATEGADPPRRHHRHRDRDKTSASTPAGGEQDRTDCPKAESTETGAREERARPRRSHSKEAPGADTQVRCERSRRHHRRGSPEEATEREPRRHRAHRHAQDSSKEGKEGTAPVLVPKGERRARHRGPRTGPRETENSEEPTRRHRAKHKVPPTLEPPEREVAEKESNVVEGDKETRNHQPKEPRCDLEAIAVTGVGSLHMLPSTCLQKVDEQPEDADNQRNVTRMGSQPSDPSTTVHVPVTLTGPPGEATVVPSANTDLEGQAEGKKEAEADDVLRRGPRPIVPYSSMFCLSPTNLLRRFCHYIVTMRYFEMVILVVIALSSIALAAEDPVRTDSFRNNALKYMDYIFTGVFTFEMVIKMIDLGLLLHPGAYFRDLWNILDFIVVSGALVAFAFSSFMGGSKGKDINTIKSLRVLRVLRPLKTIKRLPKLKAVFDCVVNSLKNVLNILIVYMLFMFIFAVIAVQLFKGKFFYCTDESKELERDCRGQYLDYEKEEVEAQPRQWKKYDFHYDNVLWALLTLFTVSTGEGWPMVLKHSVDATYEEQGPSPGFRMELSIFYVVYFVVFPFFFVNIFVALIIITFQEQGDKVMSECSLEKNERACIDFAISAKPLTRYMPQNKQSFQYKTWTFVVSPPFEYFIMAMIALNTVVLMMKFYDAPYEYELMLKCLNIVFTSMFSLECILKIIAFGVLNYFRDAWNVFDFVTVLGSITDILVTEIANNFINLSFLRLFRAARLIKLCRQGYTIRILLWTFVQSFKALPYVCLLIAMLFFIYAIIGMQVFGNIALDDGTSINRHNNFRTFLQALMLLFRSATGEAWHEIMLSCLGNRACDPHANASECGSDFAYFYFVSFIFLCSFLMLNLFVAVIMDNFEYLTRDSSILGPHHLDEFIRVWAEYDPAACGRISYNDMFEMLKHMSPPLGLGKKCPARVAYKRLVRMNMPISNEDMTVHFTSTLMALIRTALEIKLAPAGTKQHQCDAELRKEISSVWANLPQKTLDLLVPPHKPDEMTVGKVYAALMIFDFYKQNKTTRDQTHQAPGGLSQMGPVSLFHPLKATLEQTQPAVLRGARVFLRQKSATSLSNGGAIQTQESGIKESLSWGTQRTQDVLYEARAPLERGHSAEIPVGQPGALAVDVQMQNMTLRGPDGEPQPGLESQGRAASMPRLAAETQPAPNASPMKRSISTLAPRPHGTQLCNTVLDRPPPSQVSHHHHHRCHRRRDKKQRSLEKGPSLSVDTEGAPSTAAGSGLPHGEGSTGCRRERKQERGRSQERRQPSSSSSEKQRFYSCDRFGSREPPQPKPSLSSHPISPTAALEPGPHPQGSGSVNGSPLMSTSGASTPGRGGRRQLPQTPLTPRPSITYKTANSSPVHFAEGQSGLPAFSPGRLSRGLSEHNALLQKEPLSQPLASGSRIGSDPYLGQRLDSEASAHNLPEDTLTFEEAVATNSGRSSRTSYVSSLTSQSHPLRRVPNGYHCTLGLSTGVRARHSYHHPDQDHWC

For the molecule `NCC1(CC(=O)O)CCCCC1` [Gabapentin], the “binding to α2δ-2” value in experiment [1] was “bind”.
Turning to `O=C(CC(c1ccccc1)c1ccccc1)N1CCN(C(c2ccccc2)c2ccccc2)CC1` [NMED 160 (HCl)], in experiment [2], the “inhibition of Ca2+ channel current (average current density)” value is “inhibition”.

B1: chicken α2δ subunit: α2δ-1 calcium channel subunit of White Leghorn chicken, SEQ ID NO:2, 1,087 amino acids (protein, listed as Gallus domesticus)
chain: MAAGWLLVFSLTLFQSLVMNHSSEGPFPSPTTIKSWVDKMQEDLITLARTASGVEQLAAIYLKNKDLYTVEANNPRQLVEIAARDIEKLLSNRSKALVRLAKEAEKYQASHQWRDEFGNNDIIYYNAKDDQNDPEKNDTESGSQRIRPVFEEDPVFRRQTSYQHAAVHIPTDIYEGSTIVLNELNWTAALDDVFKRNREEDPTLLWQVFGSATGLARYYPASPWVDNSRTPNKIDLYDVRRRPWYIQGAASPKDMLILVDASGSVSGLTLKLIRTSVIEMLETLSDDDFVNVVSFNNNAQNVSCFNHLVQANVRNKKKLKEAVDKISAKGITDYKKGFSYAFEQLLNHSVSRANCNKIIMLFTDGGEERAQEIFHKYNEDKKVRVFTFSVGQHNYDKGPIQWMACENKGYYYEIPSIGAIRINTQEYLDVLGRPMVLAGEKAKQVQWTNVYLDALELGLVITGTLPVFNLTKEQNGKINQLILGVMGVDVSLEDIKKLTPRFTLCPNGYYFAIDPNGYVLLHPNLQPKNPKSQEPVTLDFLDAELENDIKVEIRKKMIDGESGEKTFETLVKSQDERYIDKGNRTYTWTAVNGTDYSLALVLPSYSFYYIKAKIEEPITQARLEIKKDSETLKIDHFDEAGYTFIAPREYCTDVKKSENNTEFLLNFNEFIDRNTPSSPSCNTDMVIRVLLDAGFTNELAQNYWSKLYLDGVVAQFVVTDGGITRVFPKRAGEDWLENAETYEVSFYKRSLDNDNYIFTAPYYNKSGANSYESGIMVSKAVEITINGKLLKPAVVGIKIDAMKWMENFTTTTIKSLCNSEICGCEKNSMHVDCVILDDGGFLLMSNRDEYTHQIGRFFGEIDPGLMRNLINMSLYAFNKSYDYQSVCDPEEEPKQGAGLRSAYVPTIADILQLGWWASAAAWSILQQLFLSLTFPRFLEAADMEDDDFSTALPKTSCITEQTQYFFENDDKSFIGIVDCINCSRLYHAEKISNTNLVFIISDSQLLCRSCDPKPLMQAEKPDEGPNPCEMVKQPRYRKGPDVCFDEAKQEDSADCGGASGLSPSLWSMVGIQLVLLWLLSGSRHYQL
As for B1, the “mean current density when coexpressed with chicken α2δ subunit” value in experiment [3] is given as −74.5±14.0 pA/pF.
